Earlier results on one compound are cited in patent US8497290B2, “Thiocolchicine derivatives, method of making and methods of use thereof” (priority 2009, dated 2013).

For this data set, the system named is rat model. The following applies: metabolites of thiocolchicoside, compared with thiocolchicoside.

As to `COc1c(O[C@@H]2O[C@H](C(=O)O)[C@@H](O)[C@H](O)[C@H]2O)cc2c(c1OC)-c1ccc(SC)c(=O)cc1[C@@H](NC(C)=O)CC2` [3-O-glucuronidated aglycone derivative, (7S)-7-(acetylamino)-5,6,7,9-tetrahydro-1,2-dimethoxy-10-(methylthio)-9-oxobenzo[a]heptalen-3-yl β-D-glucopyranosiduronic acid], the muscle relaxant activity entry is on record as “muscle relaxant activity similar to that of thiocolchicoside”.
